Values quoted from earlier work in patent publication US10912741B2, “Prevention of liver cancer with safranal-based formulations” (United Arab Emirates University, priority 2019, dated 2021).

System: HeLa cells
Details: reported in the background; cited from earlier work

Compound	growth of HeLa cells
CC(/C=C/C=C(\C)C(=O)O[C@@H]1O[C@H](CO[C@@H]2O[C@H](CO)[C@@H](O)[C@H](O)[C@H]2O)[C@@H](O)[C@H](O)[C@H]1O)=C\C=C\C=C(C)\C=C\C=C(/C)C(=O)O[C@@H]1O[C@H](CO[C@@H]2O[C@H](CO)[C@@H](O)[C@H](O)[C@H]2O)[C@@H](O)[C@H](O)[C@H]1O [crocin]	inhibit the growth of HeLa cells
CC1=C(C=O)C(C)(C)C[C@H](O[C@@H]2O[C@H](CO)[C@@H](O)[C@H](O)[C@H]2O)C1 [picrocrocin]	inhibit the growth of HeLa cells
